Data taken from patent US8404670B2 (Sunovion Pharmaceuticals Inc., priority 2009, dated 2013).

What follows are compounds tested against T1, human histamine H3 receptor (Homo sapiens, UniProt Q9Y5N1) (assay: H3 GTPγS assay (SPA method), histamine H3 in vitro assay). Details: GTPγ[35S] binding to membranes of cells expressing human H3; antagonist mode with R-γ-Me-Histamine at EC80 (30 nM); in one embodiment HCl salts tested; read-out: Potency (functional potency as indicated by IC50).
T1 construct: host or cells: cells expressing the human H3 receptor
T1 sequence (Q9Y5N1 whole entry): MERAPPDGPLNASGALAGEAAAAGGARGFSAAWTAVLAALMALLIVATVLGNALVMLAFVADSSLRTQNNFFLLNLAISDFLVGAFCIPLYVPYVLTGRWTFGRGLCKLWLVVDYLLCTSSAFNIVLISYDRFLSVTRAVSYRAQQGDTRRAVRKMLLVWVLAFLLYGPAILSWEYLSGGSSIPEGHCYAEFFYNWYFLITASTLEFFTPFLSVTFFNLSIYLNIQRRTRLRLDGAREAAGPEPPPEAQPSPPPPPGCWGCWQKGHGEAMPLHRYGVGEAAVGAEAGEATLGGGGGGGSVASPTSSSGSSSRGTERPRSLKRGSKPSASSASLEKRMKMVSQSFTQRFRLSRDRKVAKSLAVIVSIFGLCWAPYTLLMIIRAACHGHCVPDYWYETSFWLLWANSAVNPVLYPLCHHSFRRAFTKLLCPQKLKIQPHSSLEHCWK
Type: biochemical
Experimental: H3 GTPγS assay (SPA method) was performed at EuroScreen (Belgium, ES-392-C) using conventional methods. Briefly, cells expressing the human histamine H3 receptor were homogenized in 15 mM Tris-HCl pH 7.5, 2 mM MgCl2, 0.3 mM EDTA, and 1 mM EGTA. Membranes were washed twice in the above tris buffer, collected by centrifugation (40,000×g, 25 min), and re-suspended in 75 mM Tris-HCl pH 7.5, 12.5 mM MgCl2, 0.3 mM EDTA, 1 mM EGTA, and 250 mM sucrose. Membranes were frozen in liquid nitrogen until use. On the day of the assay, membranes were thawed and diluted in assay buffer (20 mM HEPES pH 7.4, 100 mM NaCl, 10 μg/ml saponin, 1 mM MgCl2) to give 500 μg/ml and mixed (v/v) with GDP in assay buffer for a final GDP concentration of 10 μM and incubated on ice for at least 15 min. PVT-WGA beads (Amersham, RPNQ001) were diluted in assay buffer at 50 mg/mL and mixed with GTPγ[^35S] (Amersham, SJ1308) diluted in assay buffer to give ˜25,000 dpm/10 μL and mixed vol/vol just before the start of the reaction. The reaction was started by adding 50 μL of test compound, 20 μL of the membranes:GDP mix, 10 μL of buffer, and 20 μL of the GTPγ[^35S]:beads mix in a 96 well plate Optiplate™ (PerkinElmer, 6005299) covered with topseal (TopCount™, PerkinElmer), mixed with an orbital shaker for 2 min, incubated for 1 hour at room temperature, centrifuged for 10 min at 2000 rpm, incubated for 1 h at room temperature, and counted for 1 min in a TopCount™ reader (PerkinElmer). Dose response curves and IC50 values (concentration to inhibit the reaction by 50%) were calculated by nonlinear regression using XLfit software (IDBS).
For antagonists testing, 10 μL of a reference agonist (R-γ-Me-Histamine) instead of 10 μL buffer was added at a concentration corresponding to the EC80 (30 nM). Control ligands were R-γ-Me-Histamine (Tocris, 0569), Imetit (Sigma, I-135), Thioperamide (Tocris, 0644), and Clobenpropit (Tocris, 0754) diluted in assay buffer.
The compounds provided herein were tested in the histamine H3 in vitro assay. In one embodiment, the respective HCl salts of the compounds provided herein were prepared using standard chemical procedures and tested in the histamine H3 in vitro assay.

SMILES | IC50 [nM]
Fc1ccc(CNc2ccc3c(c2)nc2n3CCN(C3CCC3)CC2)cc1 [Compound 62] | ≤ 100
c1cc2ccc(-c3ccc4c(c3)nc3n4CCN(C4CCC4)CC3)nc2[nH]1 [Compound 196, 3-cyclobutyl-8-(1H-pyrrolo[2,3-b]pyridin-6-yl)-2,3,4,5-tetrahydro-1H-benzo[4,5]imidazo[1,2-d][1,4]diazepine] | ≤ 100
c1cnnc(-c2ccc3c(c2)nc2n3CCN(C3CCC3)CC2)c1 [Compound 125, 3-cyclobutyl-8-(pyridazin-3-yl)-2,3,4,5-tetrahydro-1H-benzo[4,5]imidazo[1,2-d][1,4]diazepine] | ≤ 100
c1c2c(cc3c1nc1n3CCN(C3CCC3)CC1)CNCC2 [Compound 189, 9-cyclobutyl-2,3,4,7,8,9,10,11-octahydro-1H-[1,4]diazepino[1′,7′:1,2]imidazo[4,5-g]isoquinoline] | ≤ 100
N#Cc1ccc(C(=O)N2CCc3cc4nc5n(c4cc3C2)CCN(C2CCC2)CC5)cc1 [Compound 192, 4-(9-cyclobutyl-2,3,4,7,8,9,10,11-octahydro-1H-[1,4]diazepino[1′,7′:1,2]imidazo[4,5-g]isoquinoline-2-carbonyl)benzonitrile] | ≤ 100
FC1(F)CCCN(Cc2ccc3c(c2)nc2n3CCN(C3CCC3)CC2)C1 [Compound 162, 3-cyclobutyl-8-((3,3-difluoropiperidin-1-yl)methyl)-2,3,4,5-tetrahydro-1H-benzo[4,5]imidazo[1,2-d][1,4]diazepine] | ≤ 10
c1ccc2cc(-c3ccc4c(c3)nc3n4CCN(C4CCC4)CC3)ccc2c1 [Compound 214, 3-cyclobutyl-8-(naphthalen-2-yl)-2,3,4,5-tetrahydro-1H-benzo[4,5]imidazo[1,2-d][1,4]diazepine] | ≤ 100
c1cnc(N2CCc3cc4nc5n(c4cc3C2)CCN(C2CCC2)CC5)nc1 [Compound 193, 9-cyclobutyl-2-(pyrimidin-2-yl)-2,3,4,7,8,9,10,11-octahydro-1H-[1,4]diazepino[1′,7′:1,2]imidazo[4,5-g]isoquinoline] | ≤ 100
c1cc2c(cc1-c1ccc3nncn3c1)nc1n2CCN(C2CCC2)CC1 [Compound 204, 8-([1,2,4]triazolo[4,3-a]pyridin-6-yl)-3-cyclobutyl-2,3,4,5-tetrahydro-1H-benzo[4,5]imidazo[1,2-d][1,4]diazepine] | ≤ 10
c1ncc(CN2CCc3nc4cc(-c5ccc6[nH]ccc6c5)ccc4n3CC2)[nH]1 [Compound 20] | ≥ 1000
CNC(=O)c1ccc(Oc2ccc3nc4n(c3c2)CCN(C2CCC2)CC4)nc1 [Compound 76] | ≥ 1000
c1cncc(-c2ccc3c(c2)nc2n3CCN(C3CCC3)CC2)c1 [Compound 115, 3-cyclobutyl-9-(pyridin-3-yl)-2,3,4,5-tetrahydro-1H-[1,4]diazepino[1,7-a]benzimidazole] | ≤ 100
Brc1ccc2nc3n(c2c1)CCN(C1CCC1)CC3 [Compound 40] | ≤ 100
c1cc2c(cc1-c1cncc(N3CCCC3)n1)nc1n2CCN(C2CCC2)CC1 [Compound 94, 3-cyclobutyl-9-(6-(pyrrolidin-1-yl)pyrazin-2-yl)-2,3,4,5-tetrahydro-1H-[1,4]diazepino[1,7-a]benzimidazole] | ≤ 100
OCc1ccc2nc3n(c2c1)CCN(C1CCC1)CC3 [Compound 110, 2-(3-cyclobutyl-2,3,4,5-tetrahydro-1H-[1,4]diazepino[1,7-a]benzimidazol-8-yl)methanol] | ≤ 1000
N#Cc1ccc(-c2ccc3c(c2)nc2n3CCN(C3CCC3)CC2)cc1F [Compound 22] | ≤ 10
FC1CCN(Cc2ccc3c(c2)nc2n3CCN(C3CCC3)CC2)C1 (stereo not drawn) [Compound 165, 3-cyclobutyl-8-((3-fluoropyrrolidin-1-yl)methyl)-2,3,4,5-tetrahydro-1H-benzo[4,5]imidazo[1,2-d][1,4]diazepine] | ≤ 100
c1ccc(CN2Cc3cc4nc5n(c4cc3C2)CCN(C2CCC2)CC5)cc1 [Compound 144, 2-benzyl-8-cyclobutyl-1,2,3,6,7,8,9,10-octahydro-[1,4]diazepino[1′,7′:1,2]imidazo[4,5-f]isoindole] | ≤ 10
COc1ccnc(Nc2ccc3nc4n(c3c2)CCN(C2CCC2)CC4)n1 [Compound 80] | ≤ 1000
c1cn(-c2ccc3c(c2)nc2n3CCN(C3CCC3)CC2)nn1 [Compound 150, 3-cyclobutyl-8-(1H-1,2,3-triazol-1-yl)-2,3,4,5-tetrahydro-1H-benzo[4,5]imidazo[1,2-d][1,4]diazepine] | ≤ 100

SMILES | IC50 [nM]
c1c2c(cc3c1nc1n3CCN(C3CCC3)CC1)CCNC2 [Compound 183, 9-cyclobutyl-2,3,4,7,8,9,10,11-octahydro-1H-[1,4]diazepino[7′,1′:2,3]imidazo[4,5-g]isoquinoline] | ≤ 100
CN1CCN(c2cnc(-c3ccc4c(c3)nc3n4CCN(C4CCC4)CC3)cn2)CC1 [Compound 92, 3-cyclobutyl-9-(5-(4-methylpiperazin-1-yl)pyrazin-2-yl)-2,3,4,5-tetrahydro-1H-[1,4]diazepino[1,7-a]benzimidazole] | ≤ 10
CC(=O)N1CCc2c(ccc3c2nc2n3CCN(C3CCC3)CC2)C1 [Compound 188, 1-(10-cyclobutyl-9,10,11,12-tetrahydro-1H-[1,4]diazepino[1′,7′:1,2]imidazo[4,5-f]isoquinolin-3(2H,4H,8H)-yl)ethanone] | ≤ 1000
c1cc(-c2ccc3c(c2)nc2n3CCN(C3CCC3)CC2)ncn1 [Compound 124, 3-cyclobutyl-8-(pyrimidin-4-yl)-2,3,4,5-tetrahydro-1H-benzo[4,5]imidazo[1,2-d][1,4]diazepine] | ≤ 100
N#Cc1ccc(-c2ccc3c(c2)nc2n3CCN(C3CCC3)CC2)cc1 [Compound 2] | ≤ 10
c1ccc(-c2ccc3c(c2)nc2n3CCN(C3CCC3)CC2)nc1 [Compound 114, 3-cyclobutyl-9-(pyridin-2-yl)-2,3,4,5-tetrahydro-1H-[1,4]diazepino[1,7-a]benzimidazole] | ≤ 100
FC1CCCN(Cc2ccc3c(c2)nc2n3CCN(C3CCC3)CC2)C1 (stereo not drawn) [Compound 161, 3-cyclobutyl-8-((3-fluoropiperidin-1-yl)methyl)-2,3,4,5-tetrahydro-1H-benzo[4,5]imidazo[1,2-d][1,4]diazepine] | ≤ 10
NCc1ccc(-c2cnc3c(c2)nc2n3CCN(C3CCC3)CC2)cc1 [Compound 239] | ≤ 100
N#Cc1ccc2c(c1)nc1n2CCN(C2CCC2)CC1 [Compound 54] | ≤ 1000
N#Cc1ccc(OCc2ccc3c(c2)nc2n3CCN(C3CCC3)CC2)nc1 [Compound 108, 6-((3-cyclobutyl-2,3,4,5-tetrahydro-1H-[1,4]diazepino[1,7-a]benzimidazol-9-yl)methoxy)nicotino-nitrile] | ≤ 100
Brc1cnc2c(c1)nc1n2CCN(C2CCC2)CC1 [Compound 235, 7-Aza-3-cyclobutyl-9-bromo-2,3,4,5-tetrahydro-1H-[1,4]diazepino[1,7-a]benzimidazole] | ≥ 1000
N#Cc1ccc(-c2ccc3c(c2)nc2n3CCN(CC3CC3)CC2)cc1 [Compound 39] | ≤ 100
c1cnc(N2CCN(c3ccc4c(c3)nc3n4CCN(C4CCC4)CC3)CC2)cn1 [Compound 233, 3-cyclobutyl-8-(4-(pyrazin-2-yl)piperazin-1-yl)-2,3,4,5-tetrahydro-1H-benzo[4,5]imidazo[1,2-d][1,4]diazepine] | ≤ 10
c1cc2c(cc1-c1ccc3c(c1)nc1n3CCN(C3CCC3)CC1)OCO2 [Compound 210, 8-(benzo[d][1,3]dioxol-5-yl)-3-cyclobutyl-2,3,4,5-tetrahydro-1H-benzo[4,5]imidazo[1,2-d][1,4]diazepine] | ≤ 10
c1cc2c(cc1-c1ccc(N3CCCC3)nn1)nc1n2CCN(C2CCC2)CC1 [Compound 133, 3-cyclobutyl-8-(6-(pyrrolidin-1-yl)pyridazin-3-yl)-2,3,4,5-tetrahydro-1H-benzo[4,5]imidazo[1,2-d][1,4]diazepine] | ≤ 100
NCc1ccc(-c2ccc3nc4n(c3c2)CCN(C2CCC2)CC4)cc1 [Compound 44] | ≤ 100
c1cc2c(cc1N1CCCCC1)nc1n2CCN(C2CCC2)CC1 [Compound 175, 3-cyclobutyl-8-(piperidin-1-yl)-2,3,4,5-tetrahydro-1H-benzo[4,5]imidazo[1,2-d][1,4]diazepine] | ≤ 10
COc1ccnc(OCc2ccc3c(c2)nc2n3CCN(C3CCC3)CC2)n1 [Compound 107] | ≤ 100
CC(C1CCC1)N1CCc2nc3cc(-c4ccc(CN)cc4)ccc3n2CC1 (stereo not drawn) [Compound 5] | ≤ 100
